Patent US20240247042A1, “GLUCAGON LIKE PEPTIDE COMPOUNDS” (Novartis AG, priority 2021, published 2024)

Experiments:
Format in all cases: cell-based
human GLP1R [1] = molecular target: T1, human GLP1R (Homo sapiens, UniProt P43220); assay: Human GLP1R DERET recycling assay; conditions: for Receptor recycled mean: maximum receptor recycled as proportion of amount internalized; for T1/2 mean: rate at which receptor recycled back to the membrane after Exendin 9-39
human GLP1R (hGLP1R) [2] = molecular target: T2, human GLP1R (hGLP1R) (Homo sapiens, UniProt P43220); assay: Human GLP1R cAMP agonist assay (GloSensor)
Target sequence in this assay (P43220 24-463): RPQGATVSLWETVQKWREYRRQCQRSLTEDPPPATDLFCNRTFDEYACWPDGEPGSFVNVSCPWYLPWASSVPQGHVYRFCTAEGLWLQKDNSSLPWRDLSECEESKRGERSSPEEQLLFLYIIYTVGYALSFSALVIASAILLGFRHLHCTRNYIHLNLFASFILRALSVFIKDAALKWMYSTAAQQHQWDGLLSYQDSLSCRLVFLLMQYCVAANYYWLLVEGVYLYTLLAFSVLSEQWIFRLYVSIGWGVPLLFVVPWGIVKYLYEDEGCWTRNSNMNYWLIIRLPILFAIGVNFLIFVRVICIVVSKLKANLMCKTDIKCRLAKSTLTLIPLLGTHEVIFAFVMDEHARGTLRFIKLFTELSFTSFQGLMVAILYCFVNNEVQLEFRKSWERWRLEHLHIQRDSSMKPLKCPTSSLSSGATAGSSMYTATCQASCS
Method: Compounds described herein were tested in the following cellular assays that measures the intracellular cAMP concentration. The cAMP is generated by the activation of GLP1R. EC50 is defined as the concentration of the compound that leads to half of the maximum response (after baseline correction).
The agonist activity of compounds was determined using the GloSensor™ cAMP Assay (Promega Corp.), which measures changes in the intracellular concentration of cAMP after ligand activation of GPCRs. The assay uses a biosensor encoded by pGloSensor™-22F cAMP plasmid (Promega, cat #E2301) with cAMP binding domains fused to a mutant form of Photinus pyralis luciferase. Binding to cAMP causes conformational changes that promote large increases in light output, which can be measured by a luminescence detector. […] The assay was started the following morning by adding an equal volume of CO2-independent media containing 4% v/v dilution of the GloSensor substrate (Promega, cat #E1291) to all wells. The cell plate was incubated at RT for 2 h in the dark. The Biomek i7 (Beckman Coulter) instrument was used for the liquid handling steps. To generate duplicate dose response curves, 3-fold serially diluted compounds were added in to the cell assay plate to a final volume of 60 μL with final concentrations ranging from 100 nM through 0.03 pM in CO2-independent media containing 0.1% BSA, 0.5 mM IBMX and 0.4% DMSO. […] Curve fitting for EC50 determinations was performed in the Helios module of the software package DAVID. The 4-parameter logistic model, Hill slope was used: y=Ainf+(A0−Ainf)/(1+(x/AC50)^Hill Slope), where y is the functional response; x is the compound concentration; A0 is the minimum value (at 0 dose); Ainf is the maximum value (at infinite dose); AC50 corresponds to the point of inflection (i.e., the point on the sigmoid shaped curve halfway between A0 and Ainf). The EC50 value was represented by the AC50 value calculated from Helios in μM. Emax is the maximal activity detected within the concentration range, derived from the fitted curve.
The HEK293-SNAP-hGLP1R stable cell clone that yielded the desired response was used for human GLP1R cAMP agonist assay.

human GLP1R [3] = molecular target: T1, human GLP1R; assay: Human GLP1R DERET internalization assay
human GLP1R (hGLP1R) [4] = molecular target: T2, human GLP1R (hGLP1R); assay: Human GLP1R β-arrestin recruitment assay (PathHunter); parameters: GeneArt (insert) 93-0164 (CHO-K1-EA parental cells); 93-0491 (pCMV PK vector bundle); host or cells: PathHunter CHO-K1-EA parental cells, single clone 1
Target sequence in this assay (P43220 24-463): as above
Target sequence in this assay (P32121 whole entry partner): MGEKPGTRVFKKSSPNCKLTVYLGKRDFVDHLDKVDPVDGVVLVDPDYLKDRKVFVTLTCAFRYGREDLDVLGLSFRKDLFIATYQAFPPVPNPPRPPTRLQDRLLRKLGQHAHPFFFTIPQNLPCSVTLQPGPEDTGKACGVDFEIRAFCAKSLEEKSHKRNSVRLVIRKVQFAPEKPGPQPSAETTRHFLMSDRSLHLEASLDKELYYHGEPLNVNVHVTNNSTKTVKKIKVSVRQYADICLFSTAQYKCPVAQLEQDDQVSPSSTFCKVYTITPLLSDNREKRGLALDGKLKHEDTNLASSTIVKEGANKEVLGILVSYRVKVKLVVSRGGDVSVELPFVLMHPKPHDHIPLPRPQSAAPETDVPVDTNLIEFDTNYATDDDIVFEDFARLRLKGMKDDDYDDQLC
Method: The extent to which agonists recruited β-arrestin was measured using the PathHunter® β-arrestin assay (DiscoverX). This assay measures binding of β-arrestin to the receptor using an enzyme complementation approach. […] When β-arrestin is recruited to the receptor the enzyme becomes active and generates luminescence in the presence of a chemiluminescent substrate (PathHunter® Detection Kit, DiscoverX cat #93-0001). Luminescence can be measured on a relevant detector. […] The following day, agonists were prepared at 5 times the final required concentration. To generate triplicate dose response curves, compounds were serially diluted 3-fold in assay buffer (HBSS, 10 mM Hepes and 0.1% BSA), then added to the cell assay plate to a final volume of 25 μL and final top concentrations starting at 3 μM or less, depending on the compound. […] The plate was incubated at 37° C., 5% CO2 with humidity for 2 h after adding the compounds to the cells. […] The plate was incubated for an additional hour in the dark at RT. […] Curve fitting for EC50 determinations was performed using GraphPad Prism. The 4-parameter logistic model, Hill slope was used: Y=Bottom+(Top−Bottom)/(1+10^((Log EC50−X)*Hill Slope)), where Y is the functional response; X is the compound concentration; bottom is A0 or the minimum value (at 0 dose); top is Ainf or the maximum value (at infinite dose); EC50 is the point of inflection (i.e., the point on the sigmoid shaped curve halfway between A0 and Ainf). The EC50 value was calculated in μM.

T1 sequence (P43220 24-463): as the sequence (P43220 24-463) above

| EC50 (human GLP1R [3]; receptor internalization, HEK293-SNAP-hGLP1R-GloSensor cells) [nM] | EC50 (human GLP1R (hGLP1R) [4]; CHO-hGLP1R-β-arrestin cells) [nM] | SMILES | Receptor recycled mean (human GLP1R [1]) [%] | T1/2 mean (human GLP1R [1]) [h] | Emax (human GLP1R (hGLP1R) [2]) [%] | Emax (human GLP1R [3]) [%] | Emax (human GLP1R (hGLP1R) [4]) [%] |
| --- | --- | --- | --- | --- | --- | --- | --- |
| – | – | CCCCCCCCCCC[C@@](CCCCCCCCCCC(=O)O)(C(=O)O)C(=O)NCCOCCOCCOCCOCCOCCOCCOCCOCCOCCOCCOCCOCCOCCOCCOCCOCCOCCOCCOCCOCCOCCOCCOCCOCCC(=O)NCCCC[C@H](NC(=O)[C@H](C)NC(=O)[C@H](C)NC(=O)[C@H](CCC(N)=O)NC(=O)CNC(=O)[C@H](CCC(=O)O)NC(=O)[C@H](CC(C)C)NC(=O)[C@H](Cc1ccc(O)cc1)NC(=O)[C@H](CO)NC(=O)[C@H](CO)NC(=O)[C@@H](NC(=O)[C@H](CC(=O)O)NC(=O)[C@H](CO)NC(=O)[C@@H](NC(=O)[C@H](Cc1ccccc1)NC(=O)[C@@H](NC(=O)CNC(=O)[C@H](CCC(=O)O)NC(=O)C(C)(C)NC(=O)[C@@H](N)Cc1c[nH]cn1)[C@@H](C)O)[C@@H](C)O)C(C)C)C(=O)N[C@@H](CCC(=O)O)C(=O)N[C@@H](Cc1ccccc1)C(=O)N[C@H](C(=O)N[C@@H](C)C(=O)N[C@@H](Cc1c[nH]c2ccccc12)C(=O)N[C@@H](CC(C)C)C(=O)N[C@H](C(=O)N[C@@H](CCCNC(=N)N)C(=O)NCC(=O)N[C@@H](CCCNC(=N)N)C(=O)NCC(=O)O)C(C)C)[C@@H](C)CC [Compound 2] | 68 | 1.19 | 115 | – | – |
| – | – | CCCCCCCCCCCC(CCCCCCCCCCC(=O)O)(C(=O)O)C(=O)NCCOCCOCCOCCOCCOCCOCCOCCOCCOCCOCCOCCOCCOCCOCCOCCOCCOCCOCCOCCOCCOCCOCCOCCOCCC(=O)NCCCC[C@H](NC(=O)[C@H](C)NC(=O)[C@H](C)NC(=O)[C@H](CCC(N)=O)NC(=O)CNC(=O)[C@H](CCC(=O)O)NC(=O)[C@H](CC(C)C)NC(=O)[C@H](Cc1ccc(O)cc1)NC(=O)[C@H](CO)NC(=O)[C@H](CO)NC(=O)[C@@H](NC(=O)[C@H](CC(=O)O)NC(=O)[C@H](CO)NC(=O)[C@@H](NC(=O)[C@H](Cc1ccccc1)NC(=O)[C@@H](NC(=O)CNC(=O)[C@H](CCC(=O)O)NC(=O)C(C)(C)NC(=O)[C@@H](N)Cc1c[nH]cn1)[C@@H](C)O)[C@@H](C)O)C(C)C)C(=O)N[C@@H](CCC(=O)O)C(=O)N[C@@H](Cc1ccccc1)C(=O)N[C@H](C(=O)N[C@@H](C)C(=O)N[C@@H](Cc1c[nH]c2ccccc12)C(=O)N[C@@H](CC(C)C)C(=O)N[C@H](C(=O)N[C@@H](CCCNC(=N)N)C(=O)NCC(=O)N[C@@H](CCCNC(=N)N)C(=O)NCC(=O)O)C(C)C)[C@@H](C)CC (some centres unmarked) [Compound 1] | 65 | – | 105 | – | – |
| – | – | CCCCCCCCCCC[C@](CCCCCCCCCCC(=O)O)(C(=O)O)C(=O)NCCOCCOCCOCCOCCOCCOCCOCCOCCOCCOCCOCCOCCOCCOCCOCCOCCOCCOCCOCCOCCOCCOCCOCCOCCC(=O)NCCCC[C@H](NC(=O)[C@H](C)NC(=O)[C@H](C)NC(=O)[C@H](CCC(N)=O)NC(=O)CNC(=O)[C@H](CCC(=O)O)NC(=O)[C@H](CC(C)C)NC(=O)[C@H](Cc1ccc(O)cc1)NC(=O)[C@H](CO)NC(=O)[C@H](CO)NC(=O)[C@@H](NC(=O)[C@H](CC(=O)O)NC(=O)[C@H](CO)NC(=O)[C@@H](NC(=O)[C@H](Cc1ccccc1)NC(=O)[C@@H](NC(=O)CNC(=O)[C@H](CCC(=O)O)NC(=O)C(C)(C)NC(=O)[C@@H](N)Cc1c[nH]cn1)[C@@H](C)O)[C@@H](C)O)C(C)C)C(=O)N[C@@H](CCC(=O)O)C(=O)N[C@@H](Cc1ccccc1)C(=O)N[C@H](C(=O)N[C@@H](C)C(=O)N[C@@H](Cc1c[nH]c2ccccc12)C(=O)N[C@@H](CC(C)C)C(=O)N[C@H](C(=O)N[C@@H](CCCNC(=N)N)C(=O)NCC(=O)N[C@@H](CCCNC(=N)N)C(=O)NCC(=O)O)C(C)C)[C@@H](C)CC [Compound 3] | 69 | 1.24 | – | – | – |
| – | – | CC[C@H](C)[C@H](NC(=O)[C@H](Cc1ccccc1)NC(=O)[C@H](CCC(=O)O)NC(=O)[C@H](CCCCNC(=O)CCOCCOCCOCCOCCOCCOCCOCCOCCOCCOCCOCCOCCOCCOCCOCCOCCOCCOCCOCCOCCOCCOCCOCCOCCNC(=O)C(CCCCCCCCCCCCCC(=O)O)(CCCCCCCCCCCCCC(=O)O)C(=O)O)NC(=O)[C@H](C)NC(=O)[C@H](C)NC(=O)[C@H](CCC(N)=O)NC(=O)CNC(=O)[C@H](CCC(=O)O)NC(=O)[C@H](CC(C)C)NC(=O)[C@H](Cc1ccc(O)cc1)NC(=O)[C@H](CO)NC(=O)[C@H](CO)NC(=O)[C@@H](NC(=O)[C@H](CC(=O)O)NC(=O)[C@H](CO)NC(=O)[C@@H](NC(=O)[C@H](Cc1ccccc1)NC(=O)[C@@H](NC(=O)CNC(=O)[C@H](CCC(=O)O)NC(=O)C(C)(C)NC(=O)[C@@H](N)Cc1c[nH]cn1)[C@@H](C)O)[C@@H](C)O)C(C)C)C(=O)N[C@@H](C)C(=O)N[C@@H](Cc1c[nH]c2ccccc12)C(=O)N[C@@H](CC(C)C)C(=O)N[C@H](C(=O)N[C@@H](CCCNC(=N)N)C(=O)NCC(=O)N[C@@H](CCCNC(=N)N)C(=O)NCC(=O)O)C(C)C [Compound 8] | – | – | 106 | – | – |
| – | – | CC[C@H](C)[C@H](NC(=O)[C@H](Cc1ccccc1)NC(=O)[C@H](CCC(=O)O)NC(=O)[C@H](CCCCNC(=O)CCOCCOCCOCCOCCOCCOCCOCCOCCOCCOCCOCCOCCOCCOCCOCCOCCOCCOCCOCCOCCOCCOCCOCCOCCNC(=O)C(CCCCCCCCCCCC(=O)O)(CCCCCCCCCCCC(=O)O)C(=O)O)NC(=O)[C@H](C)NC(=O)[C@H](C)NC(=O)[C@H](CCC(N)=O)NC(=O)CNC(=O)[C@H](CCC(=O)O)NC(=O)[C@H](CC(C)C)NC(=O)[C@H](Cc1ccc(O)cc1)NC(=O)[C@H](CO)NC(=O)[C@H](CO)NC(=O)[C@@H](NC(=O)[C@H](CC(=O)O)NC(=O)[C@H](CO)NC(=O)[C@@H](NC(=O)[C@H](Cc1ccccc1)NC(=O)[C@@H](NC(=O)CNC(=O)[C@H](CCC(=O)O)NC(=O)C(C)(C)NC(=O)[C@@H](N)Cc1c[nH]cn1)[C@@H](C)O)[C@@H](C)O)C(C)C)C(=O)N[C@@H](C)C(=O)N[C@@H](Cc1c[nH]c2ccccc12)C(=O)N[C@@H](CC(C)C)C(=O)N[C@H](C(=O)N[C@@H](CCCNC(=N)N)C(=O)NCC(=O)N[C@@H](CCCNC(=N)N)C(=O)NCC(=O)O)C(C)C [Compound 7] | 71 | 1.27 | – | 77 | 82 |
| > 1000 | > 2000 | CC[C@H](C)[C@H](NC(=O)[C@H](Cc1ccccc1)NC(=O)[C@H](CCC(=O)O)NC(=O)[C@H](CCCCNC(=O)CCOCCOCCOCCOCCOCCOCCOCCOCCOCCOCCOCCOCCOCCOCCOCCOCCOCCOCCOCCOCCOCCOCCOCCOCCNC(=O)C(CCCCCCCCCCCCCCC(=O)O)(CCCCCCCCCCCCCCC(=O)O)C(=O)O)NC(=O)[C@H](C)NC(=O)[C@H](C)NC(=O)[C@H](CCC(N)=O)NC(=O)CNC(=O)[C@H](CCC(=O)O)NC(=O)[C@H](CC(C)C)NC(=O)[C@H](Cc1ccc(O)cc1)NC(=O)[C@H](CO)NC(=O)[C@H](CO)NC(=O)[C@@H](NC(=O)[C@H](CC(=O)O)NC(=O)[C@H](CO)NC(=O)[C@@H](NC(=O)[C@H](Cc1ccccc1)NC(=O)[C@@H](NC(=O)CNC(=O)[C@H](CCC(=O)O)NC(=O)C(C)(C)NC(=O)[C@@H](N)Cc1c[nH]cn1)[C@@H](C)O)[C@@H](C)O)C(C)C)C(=O)N[C@@H](C)C(=O)N[C@@H](Cc1c[nH]c2ccccc12)C(=O)N[C@@H](CC(C)C)C(=O)N[C@H](C(=O)N[C@@H](CCCNC(=N)N)C(=O)NCC(=O)N[C@@H](CCCNC(=N)N)C(=O)NCC(=O)O)C(C)C [Compound 9] | – | – | 107 | 22 | 37 |
